Assay results taken from PubChem BioAssay AID179 (DTP/NCI, 2004).
The source made the active and inactive calls.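 Rule for the calls: active = compounds giving half or more protection of infected cells from virus-caused growth loss, again on retest; inactive = the rest.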 Where a SMILES comes first, the peptide text is derived from it. [ ]: non-standard residue; d: D form. The star is where a group is joined. Hyp = O=C(O)[CH]1C[CH](O)CN1; Cbz = O=C(OCc1ccccc1)*

System: CEM cells HIV-1 protection, formazan growth assay
Assay: NCI AIDS Antiviral Assay
Settings: for IC50: measured here: growth of uninfected CEM cells
Summary of the method: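 Human CEM cells, uninfected and HIV-1-infected, exposed to five drug concentrations; growth measured by soluble formazan assay and scored as percent protection from infection, with protecting compounds retested.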

SMILES: Cc1cn(COCCN2C(=O)c3ccccc3C2=O)c(=O)[nH]c1=O
- EC50: > 200 µM
- IC50: > 200 µM

SMILES: S=C1NC=CC(S)N1 (stereo not drawn)
- EC50: > 200 µM
- IC50: > 200 µM

SMILES: CC(=O)Oc1ccc2cc(Oc3ccc(Cl)cc3)c(=O)oc2c1
- EC50: > 200 µM
- IC50: 83.2 µM

SMILES: CC(C)(C)C(=O)Cc1cc2c(cc1C(=O)O)S(=O)(=O)NC(C(C)(C)C)=C2
- EC50: > 479 µM
- IC50: > 479 µM

SMILES: COc1ccc(NC(=O)/C(CC2=Nc3ccc([N+](=O)[O-])cc3NC2O)=N\NC(=O)C[N+](C)(C)C)c(OC)c1 (stereo not drawn)
- EC50: > 45.7 µM
- IC50: > 45.7 µM

SMILES: CC(C)(CC1=CC(=O)C=CC1=O)Cc1ccccc1
- EC50: > 200 µM
- IC50: 37.2 µM

SMILES: C(=C\c1ccnc2ccccc12)/c1ccnc2ccccc12
- EC50: > 13.2 µM
- IC50: > 13.2 µM

SMILES: COC(=O)/C=C1\C(CO[Si](C)(C)C(C)(C)C)OC(n2cc(C)c(=O)[nH]c2=O)C1O[Si](C)(C)C(C)(C)C (stereo not drawn)
- EC50: > 200 µM
- IC50: 7.08 µM

SMILES: NC(=O)CNC(=O)C1CC(O)CN1C(=O)C1CCCN1C(=O)OCc1ccccc1 (stereo not drawn) (Cbz-Pro-[Hyp]-Gly-NH2; configuration not given here)
- EC50: > 200 µM
- IC50: > 200 µM

SMILES: C/C=C/C(=O)[C@@H](O)C(C)(C)C
- outcome: inactive

SMILES: CC(=O)Oc1ccc2c(c1)c1c(=O)oc(N(C)C)nc1n2Cc1ccccc1
- EC50: > 200 µM
- IC50: 120 µM

SMILES: CCCCN(CCCC)CC(C(=O)Nc1ccc([N+](=O)[O-])cc1[N+](=O)[O-])/C(C)=N\NC(=O)c1ccncc1 (stereo not drawn)
- EC50: > 56.2 µM
- IC50: > 56.2 µM

SMILES: C/C(=N/N)c1sc(-c2nc(C)c(/C(C)=N\N)s2)nc1C
- EC50: > 61.7 µM
- IC50: > 61.7 µM

SMILES: C[C@]12CC[C@H](OC(=O)/C=C\c3ccc(N(CCCl)CCCl)cc3)CC1CC[C@@H]1C2CC[C@]2(C)NC(=O)CCC12 (stereo partly drawn)
- outcome: inactive

SMILES: O=C(Nc1ccccn1)NC1CCCCC1
- EC50: > 200 µM
- IC50: 195 µM

SMILES: NC(Cc1csc2ccccc12)C(=O)O (stereo not drawn)
- EC50: > 200 µM
- IC50: 19.5 µM

SMILES: CC1=C[C@]2(O)C(=O)[C@H](C)C[C@H]3[C@@H](CC[C@@](C)(O)/C=C\2C1=O)C3(C)C
- EC50: > 30.2 µM
- IC50: 15.8 µM

SMILES: Nc1ccc(N=Nc2ccc(-c3ccc(N=Nc4c(S(=O)(=O)O)cc5cc(S(=O)(=O)O)c(N=Nc6ccccc6)c(O)c5c4N)cc3)cc2)c2ccc(S(=O)(=O)O)cc12
- outcome: inactive

SMILES: C=C(C)[C@@H]1CC[C@]2(COC(=O)CC(C)(C)CC(=O)O)CC[C@]3(C)[C@H](CC[C@@H]4[C@@]5(C)CC[C@H](OC(=O)CC(C)(C)CC(=O)O)C(C)(C)[C@@H]5CC[C@]43C)[C@@H]12
- EC50: > 200 µM
- IC50: 7.08 µM

SMILES: Cc1ccc(C(=O)Nc2ccc(CP(=O)(O)O)cc2)cc1NC(=O)Nc1cc(C(=O)Nc2ccc(CP(=O)(O)O)cc2)ccc1C
- EC50: > 50.1 µM
- IC50: > 50.1 µM

SMILES: O=S(=O)(CC1=NC2C=CC=CC2N=C1)NCc1ccccc1 (stereo not drawn)
- outcome: inactive

SMILES: Cc1nc2c(sc(=S)n2-c2ccccc2)c2nc3ccccc3n12
- EC50: > 2.09 µM
- IC50: > 2.09 µM

SMILES: CCOC(=O)c1c(NC(=S)Nc2ccccc2)sc2c1CCN(C)C2
- EC50: > 200 µM
- IC50: > 200 µM

SMILES: CC(=O)OC1C(CNC(=O)N(C)N=O)OC(OC2(CNC(=O)N(C)N=O)OC(CNC(=O)N(C)N=O)C(OC(C)=O)C2OC(C)=O)C(OC(C)=O)C1OC(C)=O (stereo not drawn)
- EC50: > 27.5 µM
- IC50: > 27.5 µM

SMILES: CSC1NNC2(C(=O)N1)c1ccccc1-c1ccccc12 (stereo not drawn)
- EC50: > 200 µM
- IC50: 26.9 µM

SMILES: Cc1[nH]c(=O)nc(CC(O)(c2ccccc2)c2ccccc2)c1-c1ccccc1
- EC50: > 2.75 µM
- IC50: > 2.75 µM

SMILES: CCCCCC/C=C\CCCCCCCCCc1c(O)c(OC)cc(O)c1CN(C)C
- EC50: > 200 µM
- IC50: 2.4 µM

SMILES: COc1cc2c(cc1OC)C(O)[C@H](Br)C(C)(C)O2 (stereo partly drawn)
- EC50: > 158 µM
- IC50: 89.1 µM

SMILES: O=[As]1(c2ccccc2)c2ccccc2Oc2ccccc21
- EC50: > 288 µM
- IC50: 141 µM

SMILES: O=C(Nc1cccc2ccccc12)N1CCCC(Br)C1 (stereo not drawn)
- EC50: > 200 µM
- IC50: 195 µM

SMILES: Cc1cc(=O)oc2c(C)c(OCCCOc3ccc4c(C)cc(=O)oc4c3C)ccc12
- EC50: > 32.4 µM
- IC50: > 32.4 µM

SMILES: CC1CC(=O)Nc2nc3ccccc3n21 (stereo not drawn)
- EC50: > 200 µM
- IC50: > 200 µM

SMILES: O=C1CCC2(c3ccccc3)Nc3ccc(Cl)cc3N12 (stereo not drawn)
- outcome: inactive

SMILES: COC(=O)C(CCCCCCCC(C(=O)OC)c1nc2n(c1O)C(=N)N=N2)c1nc2n(c1O)C(=N)N=N2 (stereo not drawn)
- EC50: > 7.41 µM
- IC50: > 7.41 µM

SMILES: CN(C)C(=O)c1nc(CNC(=O)CN)n(-c2ccc(Cl)cc2C(=O)c2ccccc2)n1
- EC50: > 200 µM
- IC50: > 200 µM

SMILES: CC1=CC2CCC1(C)C/C2=C(/C)OC=O (stereo not drawn)
- outcome: inactive

SMILES: O=C1NC(=O)C2C3C(C(O)(c4ccccc4)c4ccccn4)=CC(/C3=C(\c3ccccc3)c3ccccn3)C12 (stereo not drawn)
- EC50: > 200 µM
- IC50: 53.7 µM

SMILES: CCN(CC)C(=O)C(C)=O
- EC50: > 1740 µM
- IC50: > 1740 µM

SMILES: COc1cc(-c2ccc(N=Nc3cc(S(=O)(=O)O)c4ccccc4c3O)c(OC)c2)ccc1N=Nc1cc(S(=O)(=O)O)c2ccccc2c1O
- EC50: 135 µM
- IC50: 141 µM

SMILES: CCOC(=O)C(C(C)=O)C(CC(=O)OC)NC(=O)OCc1ccccc1 (stereo not drawn)
- EC50: > 257 µM
- IC50: > 257 µM

SMILES: COc1cc(C=Nc2cc(Cl)c(N=O)c(Cl)c2)ccc1N(CCCCl)CCCCl
- EC50: 5.25 µM
- IC50: 22.4 µM

SMILES: COC(=O)C1=C(C(=O)OC)c2cc(OC)ccc2C(C(=S)N(C)C)S1 (stereo not drawn)
- EC50: > 200 µM
- IC50: > 200 µM
